In publication PMC8550792, “Evolution of kinase polypharmacology across HSP90 drug discovery” (Cell Chemical Biology, 2021):

Assays:
Test in all cases: biochemical
Type in all cases: biochemical
382 unique human kinases [1] = target: T1, 382 unique human kinases (Homo sapiens, UniProt P19525); conditions: kinase EIF2AK2, compound 10 uM; for remaining activity at 10 µM: read-out: % Enzyme Activity (relative to DMSO controls)
T1 construct: purchased Reaction Biology (HotSpot contract assay)

382 unique human kinases [2] = target: T2, 382 unique human kinases (Homo sapiens, UniProt P48729); conditions: kinase CK1a1, compound 10 uM; for remaining activity at 10 µM: read-out: % Enzyme Activity (relative to DMSO controls)
T2 construct: purchased Reaction Biology (HotSpot contract assay)

382 unique human kinases [3] = target: T3, 382 unique human kinases (Homo sapiens, UniProt Q86UE8); conditions: TLK2, 10 uM; for remaining activity at 10 µM: read-out: % Enzyme Activity (relative to DMSO controls)
T3 construct: purchased Reaction Biology (HotSpot contract assay)

382 unique human kinases [4] = target: T4, 382 unique human kinases (Homo sapiens, UniProt Q9UK32); conditions: RSK4, [ATP] 30 µM, compound 10 uM; for remaining activity at 10 µM: read-out: % Enzyme Activity (relative to DMSO controls)
T4 construct: purchased Reaction Biology (HotSpot contract assay)

382 unique human kinases [5] = target: T5, 382 unique human kinases (Homo sapiens, UniProt P08581, Y1230C); conditions: c-MET (Y1230C), 10 uM; for remaining activity at 10 µM: read-out: % Enzyme Activity (relative to DMSO controls)
T5 construct: purchased Reaction Biology (HotSpot contract assay)

382 unique human kinases [6] = target: T6, 382 unique human kinases (Homo sapiens, UniProt P00519, M351T); conditions: ABL1 (M351T), [ATP] 10 µM, compound 10 uM; for remaining activity at 10 µM: read-out: % Enzyme Activity (relative to DMSO controls)
T6 construct: purchased Reaction Biology (HotSpot contract assay)

382 unique human kinases [7] = target: T7, 382 unique human kinases (Homo sapiens, UniProt O15146); conditions: MUSK, [ATP] 15 µM, compound 10 uM; for remaining activity at 10 µM: read-out: % Enzyme Activity (relative to DMSO controls)
T7 construct: purchased Reaction Biology (HotSpot contract assay)
T7 sequence (O15146 24-869): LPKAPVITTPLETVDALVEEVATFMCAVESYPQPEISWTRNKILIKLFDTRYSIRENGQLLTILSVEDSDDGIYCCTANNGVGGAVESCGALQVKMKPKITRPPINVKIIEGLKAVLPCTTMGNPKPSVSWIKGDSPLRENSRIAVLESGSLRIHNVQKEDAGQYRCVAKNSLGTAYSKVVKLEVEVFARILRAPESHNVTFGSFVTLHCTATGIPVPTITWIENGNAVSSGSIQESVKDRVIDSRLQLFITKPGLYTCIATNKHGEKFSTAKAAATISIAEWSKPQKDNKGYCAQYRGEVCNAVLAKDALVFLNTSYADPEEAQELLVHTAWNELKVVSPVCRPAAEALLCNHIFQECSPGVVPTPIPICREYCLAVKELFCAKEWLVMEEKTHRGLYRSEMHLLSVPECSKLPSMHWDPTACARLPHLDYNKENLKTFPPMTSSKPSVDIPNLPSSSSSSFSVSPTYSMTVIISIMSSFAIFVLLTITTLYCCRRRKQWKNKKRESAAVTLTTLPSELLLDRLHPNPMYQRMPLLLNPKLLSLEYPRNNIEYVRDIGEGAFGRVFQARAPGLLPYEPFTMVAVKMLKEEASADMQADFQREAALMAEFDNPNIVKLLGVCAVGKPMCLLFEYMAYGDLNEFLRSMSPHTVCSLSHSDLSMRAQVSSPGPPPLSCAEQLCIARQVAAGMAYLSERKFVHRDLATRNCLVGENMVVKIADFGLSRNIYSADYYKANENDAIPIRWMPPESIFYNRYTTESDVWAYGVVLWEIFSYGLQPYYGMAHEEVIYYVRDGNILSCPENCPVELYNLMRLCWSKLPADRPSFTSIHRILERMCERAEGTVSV

382 unique human kinases [8] = target: T8, 382 unique human kinases (Homo sapiens, UniProt P06239); conditions: LCK, [ATP] 15 µM
T8 construct: purchased Reaction Biology (HotSpot contract assay)

382 unique human kinases [9] = target: T9, 382 unique human kinases (Homo sapiens, UniProt O15111); conditions: IKKa/CHUK, 10 uM; for remaining activity at 10 µM: read-out: % Enzyme Activity (relative to DMSO controls)
T9 construct: purchased Reaction Biology (HotSpot contract assay)
T9 sequence (O15111 1-745): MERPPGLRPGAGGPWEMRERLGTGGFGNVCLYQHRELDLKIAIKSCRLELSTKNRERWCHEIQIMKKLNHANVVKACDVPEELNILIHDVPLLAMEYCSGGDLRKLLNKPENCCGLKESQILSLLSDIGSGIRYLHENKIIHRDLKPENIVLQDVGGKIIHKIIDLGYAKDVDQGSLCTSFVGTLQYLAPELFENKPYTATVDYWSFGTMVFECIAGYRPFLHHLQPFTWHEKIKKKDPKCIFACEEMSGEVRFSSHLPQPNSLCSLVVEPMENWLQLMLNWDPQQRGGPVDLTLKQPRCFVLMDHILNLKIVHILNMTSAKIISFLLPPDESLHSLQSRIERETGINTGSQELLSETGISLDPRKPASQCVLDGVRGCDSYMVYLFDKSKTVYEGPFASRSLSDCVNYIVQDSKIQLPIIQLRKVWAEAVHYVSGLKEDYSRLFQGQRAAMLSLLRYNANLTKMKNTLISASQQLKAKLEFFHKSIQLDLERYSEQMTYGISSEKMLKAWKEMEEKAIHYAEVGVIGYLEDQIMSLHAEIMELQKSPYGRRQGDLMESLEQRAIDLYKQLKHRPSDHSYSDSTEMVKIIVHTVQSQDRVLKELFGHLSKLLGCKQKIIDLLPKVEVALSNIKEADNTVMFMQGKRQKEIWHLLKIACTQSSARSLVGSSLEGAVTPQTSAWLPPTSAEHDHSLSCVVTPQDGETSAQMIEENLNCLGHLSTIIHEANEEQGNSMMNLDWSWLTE

382 unique human kinases [10] = target: T10, 382 unique human kinases (Homo sapiens, UniProt Q9Y6E0); conditions: MST3/STK24, [ATP] 20 µM, compound 10 uM; for remaining activity at 10 µM: read-out: % Enzyme Activity (relative to DMSO controls)
T10 construct: purchased Reaction Biology (HotSpot contract assay)

[11] = compound 10 uM, read-out: % Enzyme Activity (relative to DMSO controls)

T10 sequence (Q9Y6E0 whole entry): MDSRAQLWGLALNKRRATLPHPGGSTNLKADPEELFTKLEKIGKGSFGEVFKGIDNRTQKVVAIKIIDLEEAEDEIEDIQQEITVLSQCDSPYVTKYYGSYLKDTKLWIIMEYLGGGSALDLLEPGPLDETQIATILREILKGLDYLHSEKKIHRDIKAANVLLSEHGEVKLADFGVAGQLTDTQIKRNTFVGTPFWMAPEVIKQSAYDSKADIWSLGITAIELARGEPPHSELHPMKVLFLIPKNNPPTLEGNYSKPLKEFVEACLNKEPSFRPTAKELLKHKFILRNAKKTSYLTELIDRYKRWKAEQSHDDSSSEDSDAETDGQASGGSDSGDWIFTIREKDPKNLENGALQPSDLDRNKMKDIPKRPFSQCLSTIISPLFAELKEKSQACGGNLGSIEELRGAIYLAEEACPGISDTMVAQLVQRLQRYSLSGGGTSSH
T2 sequence (P48729 whole entry): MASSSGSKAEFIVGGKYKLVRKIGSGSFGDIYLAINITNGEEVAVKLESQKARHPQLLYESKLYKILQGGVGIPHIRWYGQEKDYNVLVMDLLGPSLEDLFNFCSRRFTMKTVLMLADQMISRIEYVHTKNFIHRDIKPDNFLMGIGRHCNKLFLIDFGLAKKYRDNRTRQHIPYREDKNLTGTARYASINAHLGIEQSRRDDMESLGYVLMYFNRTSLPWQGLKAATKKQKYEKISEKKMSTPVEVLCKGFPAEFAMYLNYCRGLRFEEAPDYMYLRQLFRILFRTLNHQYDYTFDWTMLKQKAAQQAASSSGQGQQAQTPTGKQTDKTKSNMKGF
T8 sequence (P06239 whole entry): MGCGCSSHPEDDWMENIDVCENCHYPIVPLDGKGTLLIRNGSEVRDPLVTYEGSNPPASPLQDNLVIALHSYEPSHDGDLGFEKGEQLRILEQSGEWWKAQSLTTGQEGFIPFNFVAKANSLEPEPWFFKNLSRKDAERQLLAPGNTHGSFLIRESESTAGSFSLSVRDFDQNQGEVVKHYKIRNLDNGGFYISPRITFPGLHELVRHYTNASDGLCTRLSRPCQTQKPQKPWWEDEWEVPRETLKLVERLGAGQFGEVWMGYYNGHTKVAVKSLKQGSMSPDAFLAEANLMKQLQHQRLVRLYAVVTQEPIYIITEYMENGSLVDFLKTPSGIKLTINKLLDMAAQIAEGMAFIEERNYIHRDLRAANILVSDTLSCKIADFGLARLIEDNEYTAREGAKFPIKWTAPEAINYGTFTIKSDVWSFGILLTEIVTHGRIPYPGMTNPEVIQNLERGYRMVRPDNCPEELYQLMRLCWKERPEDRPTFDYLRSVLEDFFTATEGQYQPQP
T4 sequence (Q9UK32 whole entry): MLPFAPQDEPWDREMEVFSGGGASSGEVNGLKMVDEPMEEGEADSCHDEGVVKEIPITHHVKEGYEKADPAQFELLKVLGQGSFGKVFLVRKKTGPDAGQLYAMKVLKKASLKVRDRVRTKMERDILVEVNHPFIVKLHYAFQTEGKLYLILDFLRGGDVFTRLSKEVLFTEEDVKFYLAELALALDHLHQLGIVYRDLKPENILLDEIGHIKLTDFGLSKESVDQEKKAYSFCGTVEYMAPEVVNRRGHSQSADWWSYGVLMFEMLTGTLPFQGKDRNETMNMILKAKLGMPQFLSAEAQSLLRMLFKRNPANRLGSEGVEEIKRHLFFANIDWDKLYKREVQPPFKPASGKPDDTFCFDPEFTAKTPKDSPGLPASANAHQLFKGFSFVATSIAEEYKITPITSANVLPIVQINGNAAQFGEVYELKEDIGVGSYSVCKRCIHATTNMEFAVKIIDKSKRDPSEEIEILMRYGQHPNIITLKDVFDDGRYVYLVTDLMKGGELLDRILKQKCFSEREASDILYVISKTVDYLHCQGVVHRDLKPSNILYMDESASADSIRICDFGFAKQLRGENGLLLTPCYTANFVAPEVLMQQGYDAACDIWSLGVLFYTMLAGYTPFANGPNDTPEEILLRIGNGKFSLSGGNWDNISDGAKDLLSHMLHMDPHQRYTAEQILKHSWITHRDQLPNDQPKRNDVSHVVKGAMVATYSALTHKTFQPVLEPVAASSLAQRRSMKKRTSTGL
T1 sequence (P19525 whole entry): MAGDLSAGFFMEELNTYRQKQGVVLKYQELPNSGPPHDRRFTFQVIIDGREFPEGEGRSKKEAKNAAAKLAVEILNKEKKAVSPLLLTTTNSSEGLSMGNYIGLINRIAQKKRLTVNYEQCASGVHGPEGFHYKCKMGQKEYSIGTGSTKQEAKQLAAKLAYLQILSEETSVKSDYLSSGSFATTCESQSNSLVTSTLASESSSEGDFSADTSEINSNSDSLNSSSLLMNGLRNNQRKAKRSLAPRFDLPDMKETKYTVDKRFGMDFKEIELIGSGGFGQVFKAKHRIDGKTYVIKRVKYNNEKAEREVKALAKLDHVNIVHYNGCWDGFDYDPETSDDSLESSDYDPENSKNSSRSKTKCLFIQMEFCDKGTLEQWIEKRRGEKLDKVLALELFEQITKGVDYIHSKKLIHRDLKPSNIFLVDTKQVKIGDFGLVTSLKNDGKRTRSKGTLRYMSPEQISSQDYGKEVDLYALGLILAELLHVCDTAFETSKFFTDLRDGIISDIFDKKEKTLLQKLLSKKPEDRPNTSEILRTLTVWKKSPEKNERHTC
T3 sequence (Q86UE8 whole entry): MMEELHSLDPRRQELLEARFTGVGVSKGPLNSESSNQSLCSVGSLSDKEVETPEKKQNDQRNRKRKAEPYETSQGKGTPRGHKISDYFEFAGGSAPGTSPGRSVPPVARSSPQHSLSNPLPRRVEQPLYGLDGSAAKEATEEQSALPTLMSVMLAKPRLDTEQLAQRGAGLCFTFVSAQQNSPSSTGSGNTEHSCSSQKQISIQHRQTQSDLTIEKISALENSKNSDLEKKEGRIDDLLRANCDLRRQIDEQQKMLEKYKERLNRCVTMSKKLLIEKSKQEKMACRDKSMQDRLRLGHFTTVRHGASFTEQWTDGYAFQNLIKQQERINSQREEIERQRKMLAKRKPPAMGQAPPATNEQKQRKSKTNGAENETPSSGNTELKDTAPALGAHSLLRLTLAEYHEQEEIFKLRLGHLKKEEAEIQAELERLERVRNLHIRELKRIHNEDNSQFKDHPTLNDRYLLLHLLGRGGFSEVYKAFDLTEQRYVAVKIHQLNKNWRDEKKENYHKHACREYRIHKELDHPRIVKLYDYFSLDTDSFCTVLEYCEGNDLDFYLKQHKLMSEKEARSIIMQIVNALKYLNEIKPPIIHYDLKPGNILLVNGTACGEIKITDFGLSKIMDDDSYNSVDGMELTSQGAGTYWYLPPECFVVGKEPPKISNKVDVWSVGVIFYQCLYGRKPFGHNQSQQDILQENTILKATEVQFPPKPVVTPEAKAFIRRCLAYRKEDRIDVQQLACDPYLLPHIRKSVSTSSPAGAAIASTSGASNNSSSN

Compound	remaining activity at 10 µM (382 unique human kinases [1])	remaining activity at 10 µM (382 unique human kinases [2])	remaining activity at 10 µM (382 unique human kinases [3])	remaining activity at 10 µM (382 unique human kinases [4])	remaining activity at 10 µM (382 unique human kinases [5])	remaining activity at 10 µM (382 unique human kinases [6])	remaining activity at 10 µM (382 unique human kinases [7])	remaining activity at 10 µM (382 unique human kinases [8]; [11])	remaining activity at 10 µM (382 unique human kinases [9])	remaining activity at 10 µM (382 unique human kinases [10])	also measured
CC(C)c1cc(-c2n[nH]c(=O)n2-c2ccc3c(ccn3C)c2)c(O)cc1O [Ganetespib (STA9090)]	90.5%	84.4%	–	–	–	–	–	–	–	–	–
CC(C)c1cc(-c2n[nH]c(=O)n2-c2ccc3c(ccn3C)c2)c(O)cc1O [Ganetespib]	–	–	91.9%	27.5%	97%	1.72%	51.1%	13.9%	103%	72.1%	remaining activity at 1 µM (382 unique human kinases [8]; compound 1 uM, read-out: % Enzyme Activity (relative to DMSO controls)): 49.3%
CCNC(=O)c1noc(-c2cc(C(C)C)c(O)cc2O)c1-c1ccc(CN2CCOCC2)cc1 [Luminespib]	–	–	98.7%	96%	103%	5.53%	90.6%	61%	94.7%	60%	% Enzyme Activity (relative to DMSO controls) (382 unique human kinases [3]): 97.34%; % Enzyme Activity (relative to DMSO controls) (382 unique human kinases [4]): 94.35%; % Enzyme Activity (relative to DMSO controls) (382 unique human kinases [5]): 102.31%; % Enzyme Activity (relative to DMSO controls) (382 unique human kinases [6]): 5.21%; % Enzyme Activity (relative to DMSO controls) (382 unique human kinases [7]): 89.25%; % Enzyme Activity (relative to DMSO controls) (382 unique human kinases [8]; compound 10 uM): 58.73%; % Enzyme Activity (relative to DMSO controls) (382 unique human kinases [9]): 93.54%; % Enzyme Activity (relative to DMSO controls) (382 unique human kinases [10]): 58.15%
CCNC(=O)c1noc(-c2cc(C(C)C)c(O)cc2O)c1-c1ccc(CN2CCOCC2)cc1 [Luminespib (AUY-922)]	108%	101%	–	–	–	–	–	–	–	–	% Enzyme Activity (relative to DMSO controls) (382 unique human kinases [1]): 107.07%; % Enzyme Activity (relative to DMSO controls) (382 unique human kinases [2]): 96.26%
